Structures are written as SMILES.

What is called IC50 is the point on the concentration scale where inhibition reaches its midpoint. High values mean lower potency, low ones higher potency.

The first assay deals with NCI-H226 cells. The assay can be described thus: Antiproliferation assay on NCI-H226 cells (CellTiter-Glo, 5-day treatment). The assay is classed as cell-based. The note with it: Homo sapiens, 120 h, 200 cells/well, 384 plate. How it is done:
Example 1. Antiproliferation Assay on NCI-H226 Cells (200 Cells/Well, 384 Plate, 5-Day Treatment)
The compounds of the disclosure were tested for their ability in an antiproliferation assay using NCI-H226 cells (FIG. 6 and FIG. 7). The following table summarizes the IC50 values calculated from the graph of the percent inhibition versus the log of the concentration of representative compounds of the disclosure.
For 2D adherent cell viability experiment, the cells were seeded at 384-well plate (Corning, no. 3570) at the density of 200 cells/well (FIGS. 1-7). The next day, compounds were added using Janus workstation (PerkinElmer). After 5 days treatment, the cell viability was measured by CellTiter-Glo kit (Promega, no. G7570) as the manufacturer recommended.
Compound `C=CC(=O)N1C[C@@H](Nc2ncccn2)[C@H](OCc2ccc(C(F)(F)F)cc2)C1` (relative stereo) [Compound I-1, 1-(trans-3-(pyrimidin-2-ylamino)-4-(4-(trifluoromethyl)benzyloxy)pyrrolidin-1-yl)prop-2-en-1-one] returned an IC50 of 0.036 µM. In the case of `C=CC(=O)N1C[C@@H](NS(=O)(=O)c2c(C)noc2C)[C@H](OCc2ccc(C(F)(F)F)cc2)C1` (relative stereo) [Compound V-5, N-(trans-1-acryloyl-4-(4-(trifluoromethyl)benzyloxy)pyrrolidin-3-yl)-3,5-dimethylisoxazole-4-sulfonamide], half-maximal inhibition (IC50) required 0.954 µM. In turn, `C=CC(=O)N1C[C@@H](NS(=O)(=O)c2cccc(C#N)c2)[C@H](OCc2ccc(C(F)(F)F)cc2)C1` (relative stereo) [Compound V-6, N-(trans-1-acryloyl-4-(4-(trifluoromethyl)benzyloxy)pyrrolidin-3-yl)-3-cyanobenzenesulfonamide] registered an IC50 of 0.543 µM. In turn, `C=CC(=O)N1C[C@@H](n2cc(C(N)=O)nn2)[C@H](OCc2ccc(C(F)(F)F)cc2)C1` (relative stereo) [II-1, 1-(trans-1-acryloyl-4-(4-(trifluoromethyl)benzyloxy)pyrrolidin-3-yl)-1H-1,2,3-triazole-4-carboxamide] displayed an IC50 of 0.58 µM. `C=CC(=O)N1C[C@@H](n2cc(C(=O)NC)nn2)[C@H](OCc2ccc(C(F)(F)F)cc2)C1` (relative stereo) [II-2, 1-(trans-1-acryloyl-4-(4-(trifluoromethyl)benzyloxy)pyrrolidin-3-yl)-N-methyl-1H-1,2,3-triazole-4-carboxamide] showed an IC50 of 0.461 µM. On the same count and under the same terms, the value for `C=CC(=O)N1C[C@@H](n2cc(-c3cncc(N)c3)nn2)[C@H](OCc2ccc(C(F)(F)F)cc2)C1` (relative stereo) [II-5, 1-(trans-3-(4-(5-aminopyridin-3-yl)-1H-1,2,3-triazol-1-yl)-4-(4-(trifluoromethyl)benzyloxy)pyrrolidin-1-yl)prop-2-en-1-one] was 0.172 µM; that for `C=CC(=O)N1C[C@@H](n2cc(-c3ccc(N)nc3)nn2)[C@H](OCc2ccc(C(F)(F)F)cc2)C1` (relative stereo) [II-6, 1-(trans-3-(4-(6-aminopyridin-3-yl)-1H-1,2,3-triazol-1-yl)-4-(4-(trifluoromethyl)benzyloxy)pyrrolidin-1-yl)prop-2-en-1-one] was 0.112 µM.

In turn, `C=CC(=O)N1C[C@@H](n2cc(-c3cccc(C#N)c3)nn2)[C@H](OCc2ccc(C(F)(F)F)cc2)C1` (relative stereo) [II-7, 3-(1-(trans-1-acryloyl-4-(4-(trifluoromethyl)benzyloxy)pyrrolidin-3-yl)-1H-1,2,3-triazol-4-yl)benzonitrile] registered an IC50 of 0.377 µM.

`C=CC(=O)N1C[C@@H](n2cc(C3CCN(C)CC3)nn2)[C@H](OCc2ccc(C(F)(F)F)cc2)C1` (relative stereo) [II-19, 1-(trans-3-(4-(1-methylpiperidin-4-yl)-1H-1,2,3-triazol-1-yl)-4-(4-(trifluoromethyl)benzyloxy)pyrrolidin-1-yl)prop-2-en-1-one]: the half-inhibitory concentration (IC50) is 0.193 µM. For the compound `C=CC(=O)N1C[C@@H](n2ccc(C(=O)NC)n2)[C@H](OCc2ccc(C(F)(F)F)cc2)C1` (relative stereo) [IV-5, 1-(trans-1-acryloyl-4-(4-(trifluoromethyl)benzyloxy)pyrrolidin-3-yl)-N-methyl-1H-pyrazole-3-carboxamide], the half-maximal inhibitory concentration (IC50) turned out to be 0.49 µM. This IC50 lies about 2.5-fold higher than the previous one.

Turning to `C=CC(=O)N1C[C@@H](n2nc(-c3cnn(C)c3)ccc2=O)[C@H](OCc2ccc(C(F)(F)F)cc2)C1` (relative stereo) [VI-2, 2-(trans-1-acryloyl-4-(4-(trifluoromethyl)benzyloxy)pyrrolidin-3-yl)-6-(1-methyl-1H-pyrazol-4-yl)pyridazin-3(2H)-one], the 50% inhibitory concentration (IC50) turned out to be 0.099 µM. Same read-out and setting: as for `C=CC(=O)N1C[C@@H](n2ncc(-c3cnn(C)c3)cc2=O)[C@H](OCc2ccc(C(F)(F)F)cc2)C1` (relative stereo) [VI-3, 2-(trans-1-acryloyl-4-((4-(trifluoromethyl)benzyl)oxy)pyrrolidin-3-yl)-5-(1-methyl-1H-pyrazol-4-yl)pyridazin-3(2H)-one], the figure is 0.041 µM. The same measure, in the same setting: as for `C=CC(=O)N1C[C@@H](OCc2ccc(C(F)(F)F)cc2)[C@H](c2ccc(S(C)(=O)=O)cc2)C1` (relative stereo) [VII-1, 1-(trans-3-(4-(methylsulfonyl)phenyl)-4-(4-(trifluoromethyl)benzyloxy)pyrrolidin-1-yl)prop-2-en-1-one], the figure is 0.168 µM; as for `C=CC(=O)N1C[C@@H](Nc2ccncn2)[C@H](OCc2ccc(C(F)(F)F)cc2)C1` (relative stereo) [VII-11, 1-(trans-3-(pyrimidin-4-ylamino)-4-(4-(trifluoromethyl)benzyloxy)pyrrolidin-1-yl)prop-2-en-1-one], 0.189 µM; as for `C=C(F)C(=O)N1C[C@@H](Nc2ncccn2)[C@H](OCc2ccc(C(F)(F)F)cc2)C1` [Compound I-9, 2-fluoro-1-((3R, 4R)-3-(pyrimidin-2-ylamino)-4-(4-(trifluoromethyl)benzyloxy)pyrrolidin-1-yl)prop-2-en-1-one], 0.023 µM. Turning to `C=CC(=O)N1C[C@@H](NS(=O)(=O)c2cccnc2)[C@H](OCc2ccc(C(F)(F)F)cc2)C1` [Compound V-1], the midpoint of inhibition, the IC50, lay at 0.38 µM. Regarding `C=CC(=O)N1C[C@@H](n2ccnn2)[C@H](OCc2ccc(C(F)(F)F)cc2)C1` [II-8], half-maximal inhibition (IC50) required 0.078 µM.

Take `C#Cc1ccc(CO[C@@H]2CN(C(=O)C=C)C[C@H]2n2cc(-c3cccnc3)nn2)cc1` [III-6, 1-((3R,4R)-3-(4-ethynylbenzyloxy)-4-(4-(pyridin-3-yl)-1H-1,2,3-triazol-1-yl)pyrrolidin-1-yl)prop-2-en-1-one]: the half-inhibitory concentration (IC50) turned out to be 0.256 µM. `C=CC(=O)N1C[C@@H](OCc2ccc(C(F)(F)F)cc2)[C@H](c2cccc(S(C)(=O)=O)c2)C1` [VII-2] yielded an IC50 of 0.256 µM.

The next assay concerns H2052 cells. The assay can be described thus: Antiproliferation assay using H2052 cells. Format: cell-based. The note with it: Homo sapiens, NCI-H2052; H2052 cells (FIG. 2).
Turning to `C=CC(=O)N1C[C@@H](n2ccnn2)[C@H](OCc2ccc(C(F)(F)F)cc2)C1` [II-8], the 50% inhibitory concentration (IC50) came out at 0.142 µM.
